Assay [1] has as its system bovine brain glycolipid transfer protein (GTP) cDNA (660 bp). Kind of assay: PCR amplification of GTP cDNA with diol additives, standard cycling. The assay is classed as biochemical. The following applies: for Potency / Effective range: GTP; for Potency: 95° C. denaturing, 72° C. extension, normalized maximum densitometric volume of target band: 1,5-Pentanediol = 1; for Effective range: concentration interval over which densitometric volume of target band is at least 50% of maximum volume. Here is the method:
(§1) Amplification reactions were carried out under the following general conditions. Those skilled in the art will appreciate, however, that to the extent that the conditions (set forth in this application) required for specific experiments described in this example were inconsistent with the following general conditions, limited exceptions to the following general conditions were made The general conditions were as follows: 10 Mm Tris-HCl (Ph 8.8), 50 Mm KCl, 1.5 Mm MgCl2, 0.01% (w/v) gelatin, 0.2 Um primers, 0.06 ng/ul template, 0.2 Mm each Dntp, 0.04 U/ul Taq polymerase. The templates used were bovine brain N-WASP cDNA (1518 bp), a 996 bp segment of human myeloid leukocyte c-jun cDNA, a 511 bp segment of human prostate-specific membrane antigen (PSM) cDNA, and bovine brain glycolipid transfer protein (GTP) cDNA (660 bp). cDNA synthesis was carried out using the FIRST-STRAND® RT-PCR kit from Stratagene on the respective mRNAs purchased from Clontech. All amplification reactions for gene were carried out using a single master batch of cDNA. Taq polymerase and dNTPs were obtained from Stratagene. Primers were obtained from Genosys. Primer melting temperatures (Tms) were calculated using the Genosys oligo calculator program. The sequences of the primers were as follows.
(§2) Polymerase chain reactions for the N-WASP gene were conducted on a ROBOCYCLER® Gradient 40 thermal cycler from Stratagene using 100 ul solutions in 600 ul thin-walled tubes. For expediency, amplification of c-jun, PSM and GTP was carried out in a ROBOCYCLER® Gradient 96 thermal cycler from Stratagene using 50 ul solutions in 200 ul thin-walled tubes. Prior to Taq polymerase addition, a hotstart protocol was carried out that consisted of an initial cycle of 95° C. for 5 minutes (11) to ensure complete first-strand separation, followed by a cycle of 54° C. for 5 minutes. Amplifications were run for 30 cycles. […] Extension was done at 72° C. for periods depending on target length: 2 minutes for N-WASP, 1.5 minutes for c-jun and GTP, and 1 minute for PSM. Annealings were carried out either at fixed concentrations of additives using temperature gradients of 38-56° C. for N-WASP and 44-58° C. for the other targets, or at varying concentrations of additives using fixed temperatures of 41° C. for N-WASP, 50° C. for c-jun and PSM, and 54° C. for GTP.
(§3) Amplification products were analyzed by agarose gel electrophoresis on 0.8% agarose gels in which 20 ul reaction products were loaded with 4 ul loading buffer. Gels were stained with ethidium bromide, visualized on a UV transilluminator (Fisher), and documented by photography. Densitometric quantitation of amplification products was carried out using IMAGE SCANNER® and IMAGE MASTER® software from Amersham Pharmacia. Background correction was done using the software's rolling disc method.
Investigations into the PCR enhancing capabilities of diol cosolvents were carried out using GTP as the primary template. […] The standard protocol for annealing temperature and concentration gradient screening was again followed. […] These cosolvents were thus omitted from further studies. The optimal annealing temperatures for the remaining compounds were: ethylene glycol, 1,2-propanediol, 1,3-propanediol and cis-1,2-cyclopentanediol—58° C.; 1,2-butanediol—54° C.; 1,3-butanediol and 1,4-butanediol—[…]; 2,4-pentanediol, 1,5-pentanediol, 1,6-hexanediol and MPD—56° C.

For assay [2], the system named is 511 bp segment of human prostate-specific membrane antigen (PSM) cDNA. Kind of assay: PCR amplification of PSM cDNA with diol additives, standard cycling. In kind it is biochemical. The following applies: PSM; for Specificity: best specificity (densitometric volume of target as percent of total volume) over the effective range; for Effective range: concentration interval over which densitometric volume of target is at least 50% of maximum; for Potency: normalized maximum densitometric volume of target band: 1,3-Butanediol = 1. Here is the method: as §1, §2, §3
With PSM, 1,2-propanediol, 1,2-butanediol, 1,3-butanediol, 1,4-butanediol and glycerol were tested; with c-jun, ethylene glycol and 1,3-propanediol were also tested in addition to these compounds. […] The following additive concentrations were tested using these annealing temperatures: 1,2-propanediol—0.5, 0.8, 1.1, 1.4, 1.7 and 2.0M; 1,2-butanediol—0.1, 0.3, 0.5, 0.6, 0.7 and 0.8M; 1,3-butanediol—0.1, 0.3, 0.5, 0.6, 0.9, 1.1, 1.2M; 1,4-butanediol—0.1 to 1.1M in 0.2M intervals; 1,5-pentanediol—0.1-0.6M in 0.1M intervals; glycerol—0.5 to 1.9M in 0.2M intervals, and 2.2M.

For the molecule `CCC(O)CO` (centres unmarked) [1,2-Butanediol], in assay [1], the Potency stood at 0.57 and the “Effective range” value lay within 0.08 to 0.62 M. In addition, in assay [2], the Specificity turned out to be 92%, the “Effective range” value was 0.34 to 0.73 M and the Potency is recorded as 0.42.

For the molecule `OCCCCCO` [1,5-Pentanediol], in assay [1], the Potency stood at 1.00 and the “Effective range” value was in the range of 0.16 to 0.47 M. Besides, in assay [1] (comparative standard 95/55/72° C., 0.3 M, best result under conventional conditions, normalization reference), the “GTP Potency” value came out at 1.00. In assay [2], the Specificity is on record as 94%, the “Effective range” value was in the range of 0.31 to 0.49 M and the Potency is reported as 0.54.
